In BindingDB's records for doi:10.1021/acs.jmedchem.8b01467 (Janssen Research & Development, 2018):

Target: Cannabinoid receptor 2 (Homo sapiens, UniProt P34972)
Test: Inverse agonist activity at human CB2 receptor expressed in HEK293 cells assessed as […] after 30 mins by HTRF assay

Chain of Cannabinoid receptor 2 (P34972 whole entry): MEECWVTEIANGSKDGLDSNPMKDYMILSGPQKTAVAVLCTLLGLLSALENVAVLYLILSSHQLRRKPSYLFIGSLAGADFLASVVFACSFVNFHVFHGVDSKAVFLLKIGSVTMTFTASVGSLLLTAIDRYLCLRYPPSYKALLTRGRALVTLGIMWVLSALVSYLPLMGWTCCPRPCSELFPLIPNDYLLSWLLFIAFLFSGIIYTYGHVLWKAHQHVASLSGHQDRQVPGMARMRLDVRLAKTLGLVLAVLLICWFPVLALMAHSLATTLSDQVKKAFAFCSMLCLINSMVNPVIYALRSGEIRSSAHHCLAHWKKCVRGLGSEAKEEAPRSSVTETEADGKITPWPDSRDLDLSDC

Row | Compound | EC50 [µM]
1 | Cn1c(=O)cc(NC2CCN(S(=O)(=O)C(F)(F)F)CC2)c2cc(C(c3ccc(Cl)cc3)c3ccc(Cl)cc3)ccc21 [US9266835, 49] | > 10
2 | O=c1cc(NC2CCN(S(=O)(=O)c3ccccc3)CC2)c2cc(C(c3ccc(Cl)cc3)c3ccc(Cl)cc3)ccc2[nH]1 [US9266835, 80] | > 10
3 | O=C(O)c1ccc(C(=O)N2CCC(Nc3cc(=O)[nH]c4ccc(C(c5ccc(Cl)cc5)c5ccc(Cl)cc5)cc34)CC2)cc1 [US9266835, 116] | > 10
4 | O=C(O)c1ccc(CN2CCC(Nc3cc(=O)[nH]c4ccc(C(c5ccc(Cl)cc5)c5ccc(Cl)cc5)cc34)CC2)cc1 [US9266835, 127] | > 10
5 | O=C(O)c1cccc(CN2CCC(Nc3cc(=O)[nH]c4ccc(C(c5ccc(Cl)cc5)c5ccc(Cl)cc5)cc34)CC2)c1 [US9266835, 129] | > 10
6 | COCCOc1cc(NC2CCN(S(=O)(=O)C(F)(F)F)CC2)c2cc(C(c3ccc(Cl)cc3)c3ccc(Cl)cc3)ccc2n1 [US9266835, 530] | > 10
7 | O=S(=O)(N1CCC(Nc2ccnc3c(O)cc(C(c4ccc(Cl)cc4)c4ccc(Cl)cc4)cc23)CC1)C(F)(F)F [US9266835, 541] | > 10
8 | NCCCCOc1cc(C(c2ccc(Cl)cc2)c2ccc(Cl)cc2)cc2c(NC3CCN(S(=O)(=O)C(F)(F)F)CC3)ccnc12 [US9266835, 542] | > 10
